According to US7378237B2, “Development of method for screening physiologically active pyrrole imidazole derivative” (Japan Science & Technology Corporation, priority 1999, dated 2008):

Test system: double-stranded DNA
Experiment: Alkylation and cleavage of double-stranded DNA by ImPyLDu86 (gel, cleavage bands by heating)
Assay type: biochemical
Settings: cleavage mainly at site 1 and site 2, bands after heating, FIG. 1
Experimental: Reactivities of thus synthesized PyPyLDu86 and ImPyLDu86 with DNA were determined.
Locations of alkylation can be observed as cleavage bands by heating. As a result, the double-stranded DNA was cleaved mainly at the site 1 and the site 2 from a low concentration, and it was understood that the alkylation occurred simultaneously in the double-stranded DNA. No compound to generate such a cleavage has been known until now, and it can be surely regarded as an artificial restriction enzyme.

COC(=O)c1c(C)[nH]c2c1C13CC1CN(C(=O)/C=C/c1cc(NC(=O)c4nc(NC(C)=O)cn4C)cn1C)C3=CC2=O (stereo not shown) [ImPyLDu86]
ratio of cleavage of double-stranded DNA: 70%
